Data reported in US5622947A, “Benzoheterocyclic compounds and vasopressin antagonist and oxytocin antagonist compositions containing a benzoheterocyclic compound” (Otsuka Pharmaceutical Co., Ltd., priority 1992, dated 1997).
Structures can show the parent of a compound that is named as a salt.

The compounds below were run against T1, Oxytocin receptor (uterin muscle membrane preparation) (Rattus norvegicus, UniProt P70536) (assay: Oxytocin receptor binding assay). Details: [3H]-oxytocin 10^-9 M, 25°, one hour, pH 8.0, uterin muscle membrane, DES-treated.
T1 construct: was homogenized, which was used as a membrane; from tissue; host or cells: uterine muscle membranes from diethylstilbestrol-treated animals
T1 sequence (P70536 1-388): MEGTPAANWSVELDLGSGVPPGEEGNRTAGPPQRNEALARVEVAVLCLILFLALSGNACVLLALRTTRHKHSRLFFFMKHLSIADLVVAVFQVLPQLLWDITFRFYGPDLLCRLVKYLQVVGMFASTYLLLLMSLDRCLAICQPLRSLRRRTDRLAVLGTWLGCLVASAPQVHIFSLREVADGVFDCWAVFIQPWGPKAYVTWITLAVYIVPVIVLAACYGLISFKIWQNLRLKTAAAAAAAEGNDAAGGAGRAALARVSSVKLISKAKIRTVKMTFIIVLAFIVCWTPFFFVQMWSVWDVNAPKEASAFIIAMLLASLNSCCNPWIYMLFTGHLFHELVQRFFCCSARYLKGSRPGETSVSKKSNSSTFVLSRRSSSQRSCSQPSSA
Experimental: Test-5 Oxytocin receptor binding assay
In accordance with Chan's method [by W. Y. Chan, et al.: Endocrinology, 126, 2095-2101 (1990)], the uterin muscle benn injected subcutaneously with diethylstilbe-sterol (DES) the day before and was homogenized, which was used as a membrane prepara tion. The membrane preparation (0.2 mg), [^3 H]-oxytocin (100,000 dpm, 10^-9 M), a test compound (10^-9 to 10^-5 M) were incubated at 25°. for one hour in 100 mM Tris-HCl buffer (pH=8.0, 250 μl) containing 5 mM MgCl2, 1 mM EDTA and 0.1% BSA. The mixture was filtered through a glass filter (GF/F) so as to separate the membrane preparation combining with [^3 H]-oxytocin, then, was washed twicw with the buffer (5 ml). The glass filter was put into a vial and mixed with Aquasole (a liquid scintillation cocktail). The amount of [^3 H]-oxytocin combining w ith the membrane was measured by a liquid scintillation counter. The rate of the inhibitory effect of the test compound was calculated according to the equation as follows: […]
C1 : the amount of [^3 H]-oxytocin combining with the membrane in the presence of a test compound (in known amount),
C0 : the amount of [^3 H]-oxytocin combinig with the membrane in the absence of a test compound,
B: the amount of [^3 H]-oxytocin combining with the membrane in the presence of the excess amount of oxytocin (5×10^-6 M).
The results are expressed as IC50 values, which is the concentration of the test compound required to achieve the inhibitory effect in the rate of 50%.

SMILES	IC50 [nM]
Cc1cc(NC(=O)c2ccccc2Cl)ccc1C(=O)N1CCCC(CCN2CCCCC2)c2cc(Cl)ccc21 (centres unmarked) [Example 96, 5-[2-(1-Piperidinyl)ethyl]-7-chloro-1-[2-methyl-4-(2-chlorobenzoylamino)benzoyl]-2,3,4,5-tetrahydro-1H-benzoazepine.cndot.hydrochloride]	4400
COc1cc(NC(=O)c2ccccc2Cl)ccc1C(=O)N1CCCC(OCCN2CCCN(C)CC2)c2cc(Cl)ccc21 (centres unmarked) [Example 180, 5-[2-(4-Methyl-1-homopiperazinyl)ethoxy]-7-chloro-1-[2-methoxy-4-(2-chlorobenzoylamino)benzoyl]-2,3,4,5-tetrahydro-1H-benzoazepine]	284
COc1cc(NC(=O)c2ccccc2Cl)ccc1C(=O)N1CCCC(CC(=O)N2CCN(c3ccccc3Cl)CC2)c2cc(Cl)ccc21 (centres unmarked) [Example 181]	606
CN(C)C(=O)CC1CCCN(C(=O)c2ccc(NC(=O)c3ccccc3OCCCCNC(C)(C)C)cc2)c2ccc(Cl)cc21 (centres unmarked) [Example 182]	4710
COc1cc(NC(=O)c2cccc3c2OCCC3)ccc1C(=O)N1CCCC(CC(=O)N2CCN(C)CC2)c2cc(Cl)ccc21 (centres unmarked) [Example 183]	4410
CC(=O)NC1CCN(CCCCOc2ccc(Cl)c(C(=O)Nc3ccc(C(=O)N4CCCCc5cc(Cl)ccc54)cc3)c2)CC1 [Example 184]	3670
COc1cc(C(=O)N2CCCC(CC(=O)N3CCCN(C)CC3)c3cc(Cl)ccc32)ccc1NC(=O)c1ccccc1Br (centres unmarked) [Example 185]	162

These compounds were tested against T2, V2 Recepter (rat kidney plasma membrane preparations) (Rattus norvegicus, UniProt Q00788) (assay: V2 Recepter binding assay). Details: [3H]-Arg-vasopressin 4×10^-10 M, 4° C., pH 8.0, rat kidney plasma membrane.
T2 construct: rat kidney plasma membrane preparations; from tissue; host or cells: rat kidney plasma membranes
Experimental: Test 2: V2 Recepter binding assay
By using rat kidney plasma membrane preparations prepared according to Hechter's method [by O. Hechter: J. Bio. Chem., 2.53, 3211 (1978)], the plasma membrane (100,000 dpm, 4×10^-10 M) of [^3 H]-Arg-vasopressin and a test compound (0.6 mg, 10^-10 to 10^-5 M) were incubated at 4° C. for 3 hours in 250 μl (in total volume) of 100 mM Tris-HCl buffer (pH=8.0), containing, 5 mM MgCl2, 1 mM EDTA and 0.1% BSA. After the incubation, the mixture, the mixture was filtered by using a glass filter (GF/F) so as to separate the membrane preparation combining with vasopressin, then washed twice with the buffer (5 ml). This glass filter was taken out and mixed with liquid scintillation cocktail. The amount of [^3 H]-vasopressin combining with the membrane was measured by a liquid scintillation counter and the rate of inhibitory effect of the test compound was calculated according to the following equation: Rate of the inhibitory
C1 : the amount of [^3 H]-vasopressin combining with the membrane in the presence of the testcompound of a known amount,
C0 : the amount of [^3 H]-vasopressin combining with the membrane in the absence of the test compound,
B1 : the amount of [^3 H]-vasopressin combining with the mebrane in the presence of the excess amount of vasopressin (10^-6 M).
The results are expressed as IC50 value, which is the concentration of the test compound required to achieve the inhibitory effect in the rate of 50%, and are shown in the following Table 157.

T2 sequence (Q00788 whole entry): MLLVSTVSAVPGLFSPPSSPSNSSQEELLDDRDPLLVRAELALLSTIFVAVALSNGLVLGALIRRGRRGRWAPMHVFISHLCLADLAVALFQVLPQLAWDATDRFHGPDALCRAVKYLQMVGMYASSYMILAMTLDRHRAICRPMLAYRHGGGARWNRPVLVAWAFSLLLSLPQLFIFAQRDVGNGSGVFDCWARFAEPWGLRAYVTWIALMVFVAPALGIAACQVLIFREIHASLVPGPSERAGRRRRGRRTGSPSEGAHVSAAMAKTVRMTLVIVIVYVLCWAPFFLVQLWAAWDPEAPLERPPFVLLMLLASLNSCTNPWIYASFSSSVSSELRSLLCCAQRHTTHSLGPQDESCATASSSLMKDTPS

SMILES	IC50 [nM]
CC(=O)NC1CCN(CCOC2CCCN(C(=O)c3ccc(NC(=O)c4ccccc4Cl)cc3C)c3ccc(Cl)cc32)CC1 (centres unmarked) [Example 75, 5-[2-(4-Acetylamino-1-piperidinyl)ethoxy]-7-chloro-1-[2-methyl-4-(2-chlorobenzoylamino)benzoyl]-2,3,4,5-tetrahydro-1H-benzoazepine]	32
CC(=O)NC1CCN(CCC2CCCN(C(=O)c3ccc(NC(=O)c4ccccc4Cl)cc3C)c3ccc(Cl)cc32)CC1 (centres unmarked) [Example 76, 5-[2-(4-Acetylamino-1-piperidinyl)ethyl]-7-chloro-1-[2-methyl-4-(2-chlorobenzoylamino)benzoyl]-2,3,4,5-tetrahydro-1H-benzoazepine]	14
COc1cc(NC(=O)c2ccccc2C)ccc1C(=O)N1CCC=C(CC(=O)N2CCN(C)CC2)c2cc(F)ccc21 [Example 86, 5-(4-Methyl-1-piperazinyl)carbonylmethyl-7-fluoro-1-[2-methoxy-4-(2-methylbenzoylamino)benzoyl]-2,3,-dihydro-1H-benzoazepine]	59
Cc1cc(NC(=O)c2ccccc2Cl)ccc1C(=O)N1CCCC(OCCn2cncn2)c2cc(Cl)ccc21 (centres unmarked) [Example 92]	7.4
Cc1cc(NC(=O)c2ccccc2Cl)ccc1C(=O)N1CCCC(OCCn2cnnn2)c2cc(Cl)ccc21 (centres unmarked) [Example 93, 5-[2-(1,2,3,4-Tetrazol-1-yl)ethoxy]-7-chloro-1-[2-methyl-4-(2-chlorobenzoylamino)benzoyl]-2,3,4,5-tetrahydro-1H-benzoazepine]	14
Cc1cc(NC(=O)c2ccccc2Cl)ccc1C(=O)N1CCCC(CCN2CCOCC2)c2cc(Cl)ccc21 (centres unmarked) [Example 95]	17
Cc1cc(NC(=O)c2ccccc2Cl)ccc1C(=O)N1CCCC(CCN2CCCCC2)c2cc(Cl)ccc21 (centres unmarked) [Example 96, 5-[2-(1-Piperidinyl)ethyl]-7-chloro-1-[2-methyl-4-(2-chlorobenzoylamino)benzoyl]-2,3,4,5-tetrahydro-1H-benzoazepine.cndot.hydrochloride]	9
Cc1cc(NC(=O)c2ccccc2Cl)ccc1C(=O)N1CCCC(CCn2cnnn2)c2cc(Cl)ccc21 (centres unmarked) [Example 98]	9
Cc1cc(NC(=O)c2ccccc2Cl)ccc1C(=O)N1CCCC(CCn2cncn2)c2cc(Cl)ccc21 (centres unmarked) [Example 105, 5-[2-(1,2,4-Triazol-1-yl)ethyl]-7-chloro-1-[2-methyl-4-(2-chlorobenzoylamino)benzoyl]-2,3,4,5-tetrahydro-1H-benzoazepine]	7.5
C=CCN(C)CCC1CCCN(C(=O)c2ccc(NC(=O)c3ccccc3Cl)cc2C)c2ccc(F)cc21 (centres unmarked) [Example 129, 5-[2-(N-Allyl-N-methylamino)ethyl]-7-fluoro-1-[2-methyl-4-(2-chlorobenzoylamino)benzoyl]-2,3,4,5-tetrahydro-1H-benzoazepine]	12
